Test results reported in ChEMBL document CHEMBL1201862, “PubChem BioAssay data set” (2004).
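48-hour exposure; five concentrations; linearly interpolated endpoints. GI50 marks 50% less growth.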 Active and inactive are the calls of the source. Rule as the data show it: active = GI50 up to about 1.1 µM and inactive = higher.

How the values were obtained:
Assay in all cases: NCI anticancer screen, dose series, 48 h
786-0 = tested on: 786-0
A549 = tested on: A549
ACHN = tested on: ACHN
CAKI-1 = tested on: CAKI-1
CCRF-CEM = tested on: CCRF-CEM
COLO 205 = tested on: COLO 205
DLD-1 = tested on: DLD-1
DMS-114 = tested on: DMS-114
EKVX = tested on: EKVX
HCT-116 = tested on: HCT-116
HCT-15 = tested on: HCT-15
HL-60 = tested on: HL-60
HOP-18 = tested on: HOP-18
HOP-62 = tested on: HOP-62
HOP-92 = tested on: HOP-92
HT-29 = tested on: HT-29
IGROV-1 = tested on: IGROV-1
K562 = tested on: K562
KM-20L2 = tested on: KM-20L2
KM12 = tested on: KM12
M14 = tested on: M14
M19-MEL = tested on: M19-MEL
MOLT-4 = tested on: MOLT-4
Malme-3M = tested on: Malme-3M
NCI-H226 = tested on: NCI-H226
NCI-H23 = tested on: NCI-H23
NCI-H460 = tested on: NCI-H460
NCI-H522 = tested on: NCI-H522
OVCAR-3 = tested on: OVCAR-3
OVCAR-4 = tested on: OVCAR-4
OVCAR-8 = tested on: OVCAR-8
RPMI-8226 = tested on: RPMI-8226
RXF 393 = tested on: RXF 393
SF-268 = tested on: SF-268
SF-295 = tested on: SF-295
SF-539 = tested on: SF-539
SK-MEL-28 = tested on: SK-MEL-28
SK-MEL-2 = tested on: SK-MEL-2
SK-MEL-5 = tested on: SK-MEL-5
SK-OV-3 = tested on: SK-OV-3
SN12C = tested on: SN12C
SNB-19 = tested on: SNB-19
SNB-75 = tested on: SNB-75
SR = tested on: SR
SW-620 = tested on: SW-620
TK-10 = tested on: TK-10
U-251 = tested on: U-251
UACC-257 = tested on: UACC-257
UACC-62 = tested on: UACC-62
UO-31 = tested on: UO-31
XF498 = tested on: XF498
A498 = tested on: A498
DMS-273 = tested on: DMS-273
LOX IMVI = tested on: LOX IMVI
LXFL 529 = tested on: LXFL 529
OVCAR-5 = tested on: OVCAR-5
SNB-78 = tested on: SNB-78

SMILES: COCC(C)(C)/N=C/N1Cc2cc3ccccc3nc2C1
- GI50 (786-0): > 100 µM (inactive)
- GI50 (A549): > 100 µM (inactive)
- GI50 (ACHN): > 100 µM (inactive)
- GI50 (CAKI-1): > 100 µM (inactive)
- GI50 (CCRF-CEM): > 100 µM (inactive)
- GI50 (COLO 205): > 100 µM (inactive)
- GI50 (DLD-1): > 100 µM (inactive)
- GI50 (DMS-114): > 100 µM (inactive)
- GI50 (EKVX): > 100 µM (inactive)
- GI50 (HCT-116): > 100 µM (inactive)
- GI50 (HCT-15): > 100 µM
- GI50 (HL-60): > 100 µM (inactive)
- GI50 (HOP-18): > 100 µM (inactive)
- GI50 (HOP-62): 93.8 µM (inactive)
- GI50 (HOP-92): > 100 µM (inactive)
- GI50 (HT-29): > 100 µM (inactive)
- GI50 (IGROV-1): > 100 µM (inactive)
- GI50 (K562): > 100 µM (inactive)
- GI50 (KM-20L2): > 100 µM (inactive)
- GI50 (KM12): > 100 µM (inactive)
- GI50 (M14): > 100 µM (inactive)
- GI50 (M19-MEL): > 100 µM (inactive)
- GI50 (MOLT-4): > 100 µM (inactive)
- GI50 (Malme-3M): > 100 µM (inactive)
- GI50 (NCI-H226): > 100 µM (inactive)
- GI50 (NCI-H23): > 100 µM (inactive)
- GI50 (NCI-H460): > 100 µM (inactive)
- GI50 (NCI-H522): > 100 µM (inactive)
- GI50 (OVCAR-3): 75.5 µM (inactive)
- GI50 (OVCAR-4): > 100 µM (inactive)
- GI50 (OVCAR-8): > 100 µM (inactive)
- GI50 (RPMI-8226): > 100 µM (inactive)
- GI50 (RXF 393): > 100 µM (inactive)
- GI50 (SF-268): > 100 µM (inactive)
- GI50 (SF-295): > 100 µM (inactive)
- GI50 (SF-539): > 100 µM (inactive)
- GI50 (SK-MEL-28): > 100 µM (inactive)
- GI50 (SK-MEL-2): > 100 µM (inactive)
- GI50 (SK-MEL-5): > 100 µM (inactive)
- GI50 (SK-OV-3): > 100 µM (inactive)
- GI50 (SN12C): > 100 µM (inactive)
- GI50 (SNB-19): > 100 µM (inactive)
- GI50 (SNB-75): > 100 µM (inactive)
- GI50 (SR): > 100 µM (inactive)
- GI50 (SW-620): > 100 µM (inactive)
- GI50 (TK-10): > 100 µM (inactive)
- GI50 (U-251): > 100 µM (inactive)
- GI50 (UACC-257): > 100 µM (inactive)
- GI50 (UACC-62): > 100 µM (inactive)
- GI50 (UO-31): > 100 µM (inactive)
- GI50 (XF498): > 100 µM (inactive)

SMILES: O=C1/C(=C/c2ccccc2)CN(C(=O)Oc2ccccc2)C/C1=C\c1ccccc1
- GI50 (786-0): 10.5 µM (inactive)
- GI50 (A498): 57.4 µM (inactive)
- GI50 (A549): > 100 µM (inactive)
- GI50 (ACHN): 21.9 µM (inactive)
- GI50 (CCRF-CEM): 6.44 µM (inactive)
- GI50 (COLO 205): > 100 µM (inactive)
- GI50 (DMS-114): 17.4 µM (inactive)
- GI50 (DMS-273): 23.1 µM (inactive)
- GI50 (EKVX): 62.2 µM (inactive)
- GI50 (HCT-116): 6.81 µM (inactive)
- GI50 (HCT-15): 40.6 µM
- GI50 (HL-60): 1.7 µM (inactive)
- GI50 (HOP-18): > 100 µM (inactive)
- GI50 (HOP-62): 11.2 µM (inactive)
- GI50 (HT-29): > 100 µM (inactive)
- GI50 (IGROV-1): 21.6 µM (inactive)
- GI50 (K562): 7.13 µM (inactive)
- GI50 (KM-20L2): > 100 µM (inactive)
- GI50 (KM12): > 100 µM (inactive)
- GI50 (LOX IMVI): 5.01 µM (inactive)
- GI50 (LXFL 529): 50.6 µM (inactive)
- GI50 (M14): 21.8 µM (inactive)
- GI50 (M19-MEL): 65.5 µM (inactive)
- GI50 (MOLT-4): 9.29 µM (inactive)
- GI50 (Malme-3M): > 100 µM (inactive)
- GI50 (NCI-H23): 33 µM (inactive)
- GI50 (NCI-H460): 52.1 µM (inactive)
- GI50 (NCI-H522): 23.2 µM (inactive)
- GI50 (OVCAR-3): 99.5 µM (inactive)
- GI50 (OVCAR-4): 96.2 µM (inactive)
- GI50 (OVCAR-5): > 100 µM (inactive)
- GI50 (OVCAR-8): 28.2 µM (inactive)
- GI50 (RPMI-8226): 0.221 µM (active)
- GI50 (RXF 393): 11.1 µM (inactive)
- GI50 (SF-268): 24.5 µM (inactive)
- GI50 (SF-295): 11.2 µM (inactive)
- GI50 (SF-539): 5.36 µM (inactive)
- GI50 (SK-MEL-28): > 100 µM (inactive)
- GI50 (SK-MEL-2): 15.6 µM (inactive)
- GI50 (SK-MEL-5): > 100 µM (inactive)
- GI50 (SN12C): 65.3 µM (inactive)
- GI50 (SNB-19): 13.2 µM (inactive)
- GI50 (SNB-75): 4.91 µM (inactive)
- GI50 (SNB-78): 20.4 µM (inactive)
- GI50 (SR): 7.19 µM (inactive)
- GI50 (SW-620): 20.2 µM (inactive)
- GI50 (TK-10): 17 µM (inactive)
- GI50 (U-251): 18.7 µM (inactive)
- GI50 (UACC-257): > 100 µM (inactive)
- GI50 (UACC-62): 46.3 µM (inactive)
- GI50 (UO-31): 34.3 µM (inactive)
